Assay results reported in patent US20220395443A1, “Oral Care Compositions and Methods” (Colgate-Palmolive Company, priority 2021, published 2022).
Read-outs that look alike come from different tables or passages of the source.

Assays:
[1] = tested on: Rothia dentocariosa; experiment: In vitro oral biofilm model, simple solutions: 16S V3-V4 sequencing; assay type: cell-based
Method: (§1) An in vitro model for oral biofilms is treated with either 3% KNO3 or 1.5% L-arginine alone or in combination as simple solutions. Whole human saliva was used to inoculate sterile hydroxyapatite discs held in a vertical position using a specially designed steel lid as indicated in Kumar et al. (2019). Biofilms in Human Diseases: Treatment and Control Nature, the contents of which are incorporated herein by reference in their entirety.
(§2) Following 6 h of inoculum, biofilms are treated for 2 min with simple solutions, rinsed and returned to fresh, filter-sterilized saliva. Biofilms were treated 2 times per day, with approximately 6 h between treatments for the subsequent 3 days. On the fifth day, biofilms are treated one time in the morning and then harvested approximately 3 h after treatment by sonication. Bacterial pellets are frozen and later subjected to DNA extraction and sequencing of the V3-V4 region of the 16 s ribosomal RNA subunit in order to identify the relative abundance of bacteria present in each sample to the genus level. The final supernatants were also retained, filter-sterilized and tested for total nitrate/nitrite concentrations to determine if any changes in nitrate production could be detected from the biofilm communities.
(§3) For these studies, all solutions were made fresh in dH2O and used within 1 h of being made. Solutions were prepared by weight to contain each of the following: 3% KNO3, 1.5% L-arginine, both by weight of the solution, or no active. Additionally, all solutions contained 1.7% TSPP for additional stabilization. Solution pH values were not adjusted before treatment.
(§4) The composition of the microbiome of each sample is studied to assess the bacterial community shifts induced by treatment with: potassium nitrate alone, L-arginine alone, or potassium nitrate and L-arginine in combination.

[2] = tested on: Haemophilus parainfluenzae; experiment: as above; assay type: cell-based; details: simple solutions: 3% KNO3 and/or 1.5% L-arginine; untreated (PBS) 0.14
Method: as §1, §2, §3, §4

[3] = tested on: Prevotella melaninogenica; experiment: as above; assay type: cell-based; details: simple solutions: 3% KNO3 and/or 1.5% L-arginine; untreated (PBS) 0.31
Method: as §1, §2, §3, §4

[4] = tested on: Neisseria flavescens subflava; experiment: as above; assay type: cell-based; details: simple solutions: 3% KNO3 and/or 1.5% L-arginine; untreated (PBS) 1.23
Method: as §1, §2, §3, §4

[5] = tested on: Veillonella parvula; experiment: as above; assay type: cell-based; details: simple solutions: 3% KNO3 and/or 1.5% L-arginine; untreated (PBS) 4.59
Method: as §1, §2, §3, §4

[6] = tested on: salivary biofilms; experiment: In vitro oral biofilm model, simple solutions: total NO3/NO2 in supernatant (colorimetric kit); assay type: cell-based, human; details: for NO3/NO2 (nmole per sample): biofilm supernatant, 2 min treatments twice daily, 5 days, 3% KNO3 and/or 1.5% L-arginine, all with 1.7% TSPP, untreated 5.93; for NO3/NO2 output (in words): repeated treatment with simple solutions
Method: as §1, §2, §3
At the end of the experiment, filter sterilized samples were tested for total NO3/NO2 using a colorimetric nitrate/nitrite assay kit (Sigma). Due to low sample volumes, samples were only tested for total NO3/NO2.

[7] = tested on: Oral biofilms; experiment: Measurement of nitrite in oral biofilms after potassium nitrate challenge; assay type: cell-based, human; details: treated twice a day for five days with simple solutions; total nitrite after five-minute challenge with 5% potassium nitrate; untreated 0.11
Method: Oral biofilms are grown on hydroxyapatite discs in saliva as discussed in the process detailed in Example 3. Over the course of five days, the biofilms receive treatment twice a day. Specifically, the biofilms receive treatment with samples containing simple solutions of water and 3% (by wt.) potassium nitrate and 5% (by wt.) arginine or a simple solution of water and 3% (by wt.) potassium nitrate alone. Following treatment, there is measurement of total nitrite (mg/L) in the biofilms following a five-minute challenge with 5% potassium nitrate.

[8] = tested on: Haemophilus parainfluenzae; experiment: Growth of nitrate reducing species in optical density assay; assay type: cell-based; details: for Effect on growth of Haemophilus parainfluenzae (in words): 1.5% KNO3 and 0.75% L-arginine alone or in combination, 26 h; for Optical Density (610 nm): pure culture, 0.75% L-arginine, 0.75% KNO3 (so in the source), or 1.5% KNO3 + 0.75% L-arginine by wt. of solution added, measured every two hours for 26 h, control 1.02
Method: The impact of 1.5% KNO3 and 0.75% L-arginine alone or in combination on the growth of one known nitrate reducing species, Haemophilus parainfluenzae, is studied. Pure cultures of each species are grown in the presence of the compounds. Note, the wt. % of the potassium nitrate and L-arginine is relative to the total weight of the solution added to the culture. The growth is monitored by measuring the optical density at 610 nm every two hours for 26 h.

Structure (SMILES) | Relative abundance of Rothia dentocariosa [1] | Relative abundance of Haemophilus parainfluenzae [2] | Relative abundance of Prevotella melaninogenica [3] | Relative abundance of Neisseria flavescens subflava [4] | Relative abundance of Veillonella parvula [5] | NO3/NO2 (nmole per sample) [6] [nmole per sample] | NO3/NO2 output (in words) [6] | Biofilm Nitrite Measurement [7] [mg/L] | Effect on growth of Haemophilus parainfluenzae (in words) [8] | Optical Density (610 nm) [8] | Relative abundance of Rothia dentocariosa ([1]; simple solutions: 3% KNO3 and/or 1.5% L-arginine, untreated (PBS) 0.02)
O=[N+]([O-])[O-].[K+] [KNO3, potassium nitrate] | 0 relative units of abundance | 0.04 relative units of abundance | 0.67 relative units of abundance | 0.05 relative units of abundance | 0.78 relative units of abundance | 6.00 | small increases | 0.8 | no effect on the growth | 0.99 | –
N=C(N)NCCC[C@H](N)C(=O)O [L-arginine] | – | 0.83 relative units of abundance | 0.07 relative units of abundance | 0.54 relative units of abundance | 3.28 relative units of abundance | 6.01 | small increases | – | slightly reduce growth | 0.65 | 0.02 relative units of abundance
